The values below come from ChEMBL document CHEMBL4680228 (Eur J Med Chem, 2020).

The subject of one assay is NCI-H69. Nature of the assay: Antiproliferative activity against human NCI-H69 cells assessed as inhibition of cell proliferation. It counts as functional, cell-based.
For another assay, the system named is SR. Briefly: Antiproliferative activity against human SR cells assessed as reduction in cell growth. Type of assay: functional, cell-based.
In the next assay the test system is NCI-H2228. Briefly: Antiproliferative activity against human NCI-H2228 cells expressing EML4-ALK assessed as reduction in cell viability incubated for 72 hrs by CCK8 assay. It counts as functional, cell-based. Conditions: NCI-H2228, 72 h.
Assay [1] addresses NPM/ALK (Nucleophosmin/ALK tyrosine kinase receptor) (Homo sapiens) (UniProt Q9UM73+P06748). Nature of the assay: Induction of NPM-ALK fusion protein degradation in human SR cells. Type of assay: cell-based.
A further assay in a line: cells. Conditions: Homo sapiens, NCI-H1688.
Assay [2] deals with T1, von Hippel-Lindau disease tumor suppressor/ALK tyrosine kinase receptor/Nucleophosmin (Homo sapiens, UniProt Q9UM73+P06748+P40337). Nature of the assay: Protac activity at VHL/NPM-ALK fusion protein in human SR cells assessed as degradation of ALK at 100 nM measured after 24 hrs. It counts as cell-based.
Target sequence in this assay (P06748 whole entry partner, the tested form may be a part): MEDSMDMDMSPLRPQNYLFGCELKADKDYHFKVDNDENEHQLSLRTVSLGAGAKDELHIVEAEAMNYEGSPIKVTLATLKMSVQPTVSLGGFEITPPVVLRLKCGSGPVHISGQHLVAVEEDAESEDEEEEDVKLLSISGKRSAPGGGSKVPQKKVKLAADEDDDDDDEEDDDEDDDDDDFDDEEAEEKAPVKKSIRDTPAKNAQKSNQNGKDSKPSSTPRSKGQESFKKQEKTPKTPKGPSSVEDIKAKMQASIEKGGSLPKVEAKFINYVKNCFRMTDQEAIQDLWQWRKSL
Target sequence in this assay (P40337 whole entry partner, the tested form may be a part): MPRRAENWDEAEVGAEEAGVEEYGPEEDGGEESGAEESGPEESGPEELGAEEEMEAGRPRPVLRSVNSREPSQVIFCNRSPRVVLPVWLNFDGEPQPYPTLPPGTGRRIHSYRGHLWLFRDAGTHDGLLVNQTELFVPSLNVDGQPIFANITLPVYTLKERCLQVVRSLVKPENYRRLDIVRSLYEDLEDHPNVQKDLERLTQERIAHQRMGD
Target sequence in this assay (Q9UM73 19-1620 limits assumed): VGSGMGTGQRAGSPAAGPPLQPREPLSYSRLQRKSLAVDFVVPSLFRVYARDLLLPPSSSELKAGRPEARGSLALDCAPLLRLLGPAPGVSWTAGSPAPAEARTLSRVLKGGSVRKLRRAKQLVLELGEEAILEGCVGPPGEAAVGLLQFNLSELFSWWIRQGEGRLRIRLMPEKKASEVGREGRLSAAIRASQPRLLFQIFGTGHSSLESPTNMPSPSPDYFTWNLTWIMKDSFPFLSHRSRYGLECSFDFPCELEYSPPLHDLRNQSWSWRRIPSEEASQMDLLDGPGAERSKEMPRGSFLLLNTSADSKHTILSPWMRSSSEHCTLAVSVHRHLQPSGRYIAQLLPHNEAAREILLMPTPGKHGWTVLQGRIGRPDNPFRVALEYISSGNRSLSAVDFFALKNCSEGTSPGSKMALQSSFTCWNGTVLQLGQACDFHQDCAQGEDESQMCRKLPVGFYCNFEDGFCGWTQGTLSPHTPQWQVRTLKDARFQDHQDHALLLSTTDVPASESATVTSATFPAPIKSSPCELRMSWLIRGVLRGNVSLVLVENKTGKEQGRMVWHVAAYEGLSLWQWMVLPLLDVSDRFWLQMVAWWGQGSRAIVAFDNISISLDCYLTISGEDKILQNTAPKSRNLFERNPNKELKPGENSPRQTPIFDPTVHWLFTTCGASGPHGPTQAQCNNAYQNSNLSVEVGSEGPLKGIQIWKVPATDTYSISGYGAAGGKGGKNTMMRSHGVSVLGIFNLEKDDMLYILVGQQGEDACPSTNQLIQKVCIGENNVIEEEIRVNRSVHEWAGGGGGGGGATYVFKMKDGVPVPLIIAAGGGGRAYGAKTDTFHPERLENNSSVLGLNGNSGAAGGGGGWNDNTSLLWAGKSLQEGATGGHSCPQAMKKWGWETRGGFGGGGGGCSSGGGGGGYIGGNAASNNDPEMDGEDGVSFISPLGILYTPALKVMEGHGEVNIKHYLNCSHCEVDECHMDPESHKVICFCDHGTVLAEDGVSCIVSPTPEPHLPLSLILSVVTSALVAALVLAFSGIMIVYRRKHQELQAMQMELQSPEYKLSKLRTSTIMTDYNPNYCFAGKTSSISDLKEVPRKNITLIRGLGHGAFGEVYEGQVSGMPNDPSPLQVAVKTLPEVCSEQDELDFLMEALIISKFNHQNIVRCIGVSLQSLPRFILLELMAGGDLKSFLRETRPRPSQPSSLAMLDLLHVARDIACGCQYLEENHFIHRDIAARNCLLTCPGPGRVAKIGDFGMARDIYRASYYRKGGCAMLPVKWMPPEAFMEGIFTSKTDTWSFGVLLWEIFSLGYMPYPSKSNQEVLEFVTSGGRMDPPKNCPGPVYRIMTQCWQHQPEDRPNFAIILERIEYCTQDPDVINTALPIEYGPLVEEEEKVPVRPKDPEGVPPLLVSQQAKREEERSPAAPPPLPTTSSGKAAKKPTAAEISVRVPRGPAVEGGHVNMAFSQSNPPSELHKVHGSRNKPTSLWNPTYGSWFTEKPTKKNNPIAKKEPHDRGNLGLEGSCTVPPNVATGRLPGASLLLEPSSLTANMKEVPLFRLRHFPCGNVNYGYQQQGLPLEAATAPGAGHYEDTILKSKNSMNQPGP
Assay [3] has as its target T1, von Hippel-Lindau disease tumor suppressor/ALK tyrosine kinase receptor/Nucleophosmin. Briefly: Protac activity at VHL/NPM-ALK fusion protein in human SR cells assessed as reduction in STAT3 phosphorylation at 1 to 500 nM. Type of assay: cell-based. Conditions: dose 1-500 nM.
Target sequence in this assay (P06748 whole entry partner, the tested form may be a part): as the sequence (P06748 whole entry partner, the tested form may be a part) above
Target sequence in this assay (P40337 whole entry partner, the tested form may be a part): as the sequence (P40337 whole entry partner, the tested form may be a part) above
Target sequence in this assay (Q9UM73 19-1620 limits assumed): as the sequence (Q9UM73 19-1620 limits assumed) above
Assay [4] addresses von Hippel-Lindau disease tumor suppressor/ALK tyrosine kinase receptor/Echinoderm microtubule-associated protein-like 4 (Homo sapiens, UniProt P40337+Q9HC35+Q9UM73, G1202R).
Assay [5] concerns the target T1, von Hippel-Lindau disease tumor suppressor/ALK tyrosine kinase receptor/Nucleophosmin. Briefly: Protac activity at VHL/NPM-ALK fusion protein in human SR cells assessed as reduction in ALK phosphorylation at 50 nM. More on the design: scale not given: the % may be the effect or the level left. It counts as cell-based.
Target sequence in this assay (P06748 whole entry partner, the tested form may be a part): as the sequence (P06748 whole entry partner, the tested form may be a part) above
Target sequence in this assay (P40337 whole entry partner, the tested form may be a part): as the sequence (P40337 whole entry partner, the tested form may be a part) above
Target sequence in this assay (Q9UM73 19-1620 limits assumed): as the sequence (Q9UM73 19-1620 limits assumed) above
Assay [6] shares this target. Nature of the assay: Protac activity at VHL/NPM-ALK fusion protein in human SR cells assessed as induction of ALK degradation 100 nM treated for 24 hrs followed by compound washout and measured after 24 to 48 hrs by Western blot analysis. It counts as cell-based. For orientation: Immunoblotting shows a protein as a band on a membrane.
Target sequence in this assay (P06748 whole entry partner, the tested form may be a part): as the sequence (P06748 whole entry partner, the tested form may be a part) above
Target sequence in this assay (P40337 whole entry partner, the tested form may be a part): as the sequence (P40337 whole entry partner, the tested form may be a part) above
Target sequence in this assay (Q9UM73 19-1620 limits assumed): as the sequence (Q9UM73 19-1620 limits assumed) above
For assay [7], the target named is von Hippel-Lindau disease tumor suppressor/ALK tyrosine kinase receptor/Echinoderm microtubule-associated protein-like 4 (Homo sapiens) (UniProt Q9UM73+Q9HC35+P40337). Nature of the assay: Protac activity at VHL/EML4-ALK fusion protein in human NCI-H2228 cells assessed as induction of ALK degradation at 50 to 500 nM. It counts as cell-based. To be noted: dose 50-500 nM.

Assay [8] has as its target T1, von Hippel-Lindau disease tumor suppressor/ALK tyrosine kinase receptor/Nucleophosmin. Briefly: Protac activity at VHL/NPM-ALK fusion protein in human SR cells assessed as degradation of ALK. It counts as cell-based.
Assay [9] deals with von Hippel-Lindau disease tumor suppressor/Uridine-cytidine kinase 2 (Homo sapiens) (UniProt Q9BZX2+P40337). Nature of the assay: Protac activity at VHL/UCK2 in human SR cells assessed as induction of UCK2 degradation. It counts as cell-based.
Sequence of von Hippel-Lindau disease tumor suppressor/Uridine-cytidine kinase 2 (Homo sapiens) (P40337 whole entry, looked up, the tested form may be a part): as the sequence (P40337 whole entry partner, the tested form may be a part) above
Sequence of von Hippel-Lindau disease tumor suppressor/Uridine-cytidine kinase 2 (Homo sapiens) (Q9BZX2 whole entry, looked up, the tested form may be a part): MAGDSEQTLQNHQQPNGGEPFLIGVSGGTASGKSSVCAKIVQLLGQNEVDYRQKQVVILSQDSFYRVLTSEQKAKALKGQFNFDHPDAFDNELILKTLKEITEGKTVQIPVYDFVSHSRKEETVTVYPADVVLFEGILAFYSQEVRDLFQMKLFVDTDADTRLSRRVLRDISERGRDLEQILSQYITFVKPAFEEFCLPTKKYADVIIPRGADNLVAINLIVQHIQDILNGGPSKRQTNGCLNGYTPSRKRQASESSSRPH
Assay [10] deals with T1, von Hippel-Lindau disease tumor suppressor/ALK tyrosine kinase receptor/Nucleophosmin. Briefly: Protac activity at VHL/NPM-ALK fusion protein in human SR cells assessed as degradation of ALK at 100 nM. Type of assay: cell-based. To be noted: TDE = time-dependent effect.
Target sequence in this assay (P06748 whole entry partner, the tested form may be a part): as the sequence (P06748 whole entry partner, the tested form may be a part) above
Target sequence in this assay (P40337 whole entry partner, the tested form may be a part): as the sequence (P40337 whole entry partner, the tested form may be a part) above
Target sequence in this assay (Q9UM73 19-1620 limits assumed): as the sequence (Q9UM73 19-1620 limits assumed) above
Assay [11] has the same target. Nature of the assay: Protac activity at VHL/NPM-ALK fusion protein in human SR cells assessed as reduction in ALK phosphorylation at 10 nM. It counts as cell-based.
Target sequence in this assay (P06748 whole entry partner, the tested form may be a part): as the sequence (P06748 whole entry partner, the tested form may be a part) above
Target sequence in this assay (P40337 whole entry partner, the tested form may be a part): as the sequence (P40337 whole entry partner, the tested form may be a part) above
Target sequence in this assay (Q9UM73 19-1620 limits assumed): as the sequence (Q9UM73 19-1620 limits assumed) above
Assay [12] has as its target von Hippel-Lindau disease tumor suppressor/Receptor-type tyrosine-protein kinase FLT3 (Homo sapiens) (UniProt P36888+P40337). Nature of the assay: Protac activity at VHL/FLT3 in human SR cells assessed as induction of FLT3 degradation. It counts as cell-based.
The target of assay [13] is von Hippel-Lindau disease tumor suppressor/Insulin-like growth factor 1 receptor (Homo sapiens) (UniProt P08069+P40337). Nature of the assay: Protac activity at VHL/IGF1R in human SR cells assessed as induction of IGF1R degradation. It counts as cell-based.
Assay [14] concerns the target von Hippel-Lindau disease tumor suppressor/Aurora kinase A (Homo sapiens) (UniProt O14965+P40337). Nature of the assay: Protac activity at VHL/Aurora A in human SR cells assessed as induction of Aurora A degradation. Type of assay: cell-based.
Assay [15] has as its target von Hippel-Lindau disease tumor suppressor/Cyclin-G-associated kinase (Homo sapiens) (UniProt O14976+P40337). Briefly: Protac activity at VHL/GAK in human SR cells assessed as induction of GAK degradation. It counts as cell-based.
The target in assay [16] is von Hippel-Lindau disease tumor suppressor/Proto-oncogene tyrosine-protein kinase ROS (Homo sapiens) (UniProt P08922+P40337). Nature of the assay: Protac activity at VHL/ROS1 in human SR cells assessed as induction of ROS1 degradation. Type of assay: cell-based.
The target in a further assay is EML4-ALK (Homo sapiens, UniProt Q9UM73, G1202R). Briefly: Inhibition of EML4-ALK G1202R mutant fusion protein (unknown origin) expressed in HEK293T cells. Type of assay: cell-based.
In assay [17] the target is T1, von Hippel-Lindau disease tumor suppressor/ALK tyrosine kinase receptor/Nucleophosmin. Nature of the assay: Protac activity at VHL/NPM-ALK fusion protein in human SR cells assessed as degradation of ALK measured after 16 hrs in presence of proteasome inhibitor MG132. It counts as cell-based.
For assay [18], the target named is von Hippel-Lindau disease tumor suppressor/ALK tyrosine kinase receptor/Echinoderm microtubule-associated protein-like 4 (Homo sapiens, UniProt Q9UM73+Q9HC35+P40337, G1202R). Nature of the assay: Protac activity at VHL/EML4-ALK G1202R mutant fusion protein (unknown origin) expressed in HEK293T cells assessed as induction of ALK degradation by Western blot analysis. It counts as cell-based.

Assay [19] has as its target T1, von Hippel-Lindau disease tumor suppressor/ALK tyrosine kinase receptor/Nucleophosmin. Briefly: Protac activity at VHL/NPM-ALK fusion protein in human SR cells assessed as degradation of ALK measured after 16 hrs in presence of proteasome inhibitor MLN4924. It counts as cell-based.

Broadly, the IC50 is the concentration needed to halve the response being measured. What is called DC50 is the midpoint of the concentration-degradation curve.

The structures appear in SMILES notation. Active and inactive are the calls of the source. No cut-off for these calls is given here.

Sequence of von Hippel-Lindau disease tumor suppressor/Cyclin-G-associated kinase (Homo sapiens) (O14976 whole entry, looked up): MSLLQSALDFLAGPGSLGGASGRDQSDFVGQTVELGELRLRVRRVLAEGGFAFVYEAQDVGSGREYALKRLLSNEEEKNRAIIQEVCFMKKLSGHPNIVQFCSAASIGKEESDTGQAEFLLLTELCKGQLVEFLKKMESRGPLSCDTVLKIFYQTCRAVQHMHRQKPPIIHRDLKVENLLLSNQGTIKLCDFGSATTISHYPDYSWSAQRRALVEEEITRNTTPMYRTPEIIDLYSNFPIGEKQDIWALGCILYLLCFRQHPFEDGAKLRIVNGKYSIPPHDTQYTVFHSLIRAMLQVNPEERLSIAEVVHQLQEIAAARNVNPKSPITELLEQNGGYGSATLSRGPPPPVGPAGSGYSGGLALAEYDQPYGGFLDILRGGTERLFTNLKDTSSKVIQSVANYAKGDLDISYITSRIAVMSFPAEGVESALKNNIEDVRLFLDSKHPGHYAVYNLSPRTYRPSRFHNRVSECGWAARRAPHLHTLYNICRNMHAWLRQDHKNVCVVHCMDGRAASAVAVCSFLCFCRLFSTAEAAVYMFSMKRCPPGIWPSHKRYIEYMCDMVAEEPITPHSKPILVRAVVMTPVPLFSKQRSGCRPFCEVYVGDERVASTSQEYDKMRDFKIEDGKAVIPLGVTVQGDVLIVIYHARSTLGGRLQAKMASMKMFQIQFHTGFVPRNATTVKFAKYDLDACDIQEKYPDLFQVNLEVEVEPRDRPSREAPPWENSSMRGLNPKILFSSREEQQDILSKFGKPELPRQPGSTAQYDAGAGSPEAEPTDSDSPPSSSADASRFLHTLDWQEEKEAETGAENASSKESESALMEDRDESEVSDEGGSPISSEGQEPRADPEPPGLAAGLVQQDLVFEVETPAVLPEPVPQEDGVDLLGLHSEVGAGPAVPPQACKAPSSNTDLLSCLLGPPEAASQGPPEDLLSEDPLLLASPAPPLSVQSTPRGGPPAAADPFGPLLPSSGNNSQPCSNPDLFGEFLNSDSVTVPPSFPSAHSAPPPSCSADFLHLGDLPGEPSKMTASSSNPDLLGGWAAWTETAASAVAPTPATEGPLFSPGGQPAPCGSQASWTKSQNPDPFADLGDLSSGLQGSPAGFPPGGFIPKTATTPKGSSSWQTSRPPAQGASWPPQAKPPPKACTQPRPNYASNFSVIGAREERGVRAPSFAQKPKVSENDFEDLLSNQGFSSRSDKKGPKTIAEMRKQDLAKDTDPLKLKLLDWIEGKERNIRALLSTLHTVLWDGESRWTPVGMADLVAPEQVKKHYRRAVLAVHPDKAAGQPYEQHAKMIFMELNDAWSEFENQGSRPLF
Sequence of von Hippel-Lindau disease tumor suppressor/Cyclin-G-associated kinase (Homo sapiens) (P40337 whole entry, looked up): as the sequence (P40337 whole entry partner, the tested form may be a part) above
Description for cells: Antiproliferative activity against human NCI-H1688 cells assessed as inhibition of cell proliferation

Consider `COc1cc(N2CCC(N3CCN(C)CC3)CC2)ccc1Nc1ncc(Cl)c(Nc2ccccc2P(C)(C)=O)n1` [BRIGATINIB], for which the IC50 in the assay on NCI-H69 amounted to 2600 nM; in the assay on SR, 2.7 nM; in the assay on NCI-H2228, 58.2 nM; in the assay “cells”, 691 nM. For the same molecule, the outcome in assay [1] was inactive.

For the molecule `COc1cc(N2CCC(NC(=O)CCCCCCCCCC(=O)N[C@H](C(=O)N3C[C@@H](O)C[C@H]3C(=O)NCc3ccc(-c4scnc4C)cc3)C(C)(C)C)CC2)ccc1Nc1ncc(Cl)c(Nc2ccccc2P(C)(C)=O)n1`, the result in [2] was inactive. The result in assay [3] was Active. Moreover, the figures for the IC50 (in [4]; in the assay on SR; with NCI-H2228) were 608 nM, 5.5 nM and 114 nM, respectively. In addition, the Activity in assay [5] was 100%.

Turning to `COc1cc(N2CCC(NC(=O)CCCCCCCCCC(=O)N[C@H](C(=O)N3C[C@H](O)C[C@H]3C(=O)NCc3ccc(-c4scnc4C)cc3)C(C)(C)C)CC2)ccc1Nc1ncc(Cl)c(Nc2ccccc2P(C)(C)=O)n1`, the IC50 is 799 nM with NCI-H69; 166 nM in assay [4]; 1.7 nM in the assay on SR; 46 nM in the assay on NCI-H2228; 146 nM at EML4-ALK; 259 nM in the assay “cells”. Moreover, the result in [6], in assay [3], in assay [7] and in assay [11] was Active. Also, the DC50 was 7 nM in [8] and under 200 nM in assay [18]. Moreover, the outcome in assay [9], in assay [12], in assay [13], in assay [14], in assay [15] and in assay [16] was inactive. The outcome in assay [17] and in [19] was inactive. Further, the Activity result in [10] is “Tde”.
